According to paper PMC6105673 (Nature Communications, 2018):
No end group written: not given here. *: point of attachment. Biotin = O=C1N[C@H]2[C@H](CS[C@H]2CCCCC(=O)*)N1

How the values were obtained:
[1] = molecular target: T1, pVHL-elongin B-elongin C (VBC) complex (Homo sapiens, UniProt P40337+Q15369+Q15370); experiment: Biolayer interferometry kinetic analysis of VBC complex binding to biotinylated HIF-2α peptides; conditions: for ka (association rate): purified VBC; for binding to VBC compared to WT (in words): HIF-2αOH peptides (523–541)
T1 construct: a construct encoding N-terminal GST-tagged pVHL19 (54–213); GST (N, cleaved yes); made in house; host or cells: BL21(DE3) E. coli
Experimental: Absorbance was read at 450 nm. […] The data were analyzed based on a 1:1 binding model using the BLItz Pro software with the fitted curves shown as gray lines. […] Values represent mean of three experiments conducted with independently purified protein ± SEM. * denotes uncharacterized band
Multiple concentrations of purified VBC complex were diluted in kinetics buffer and allowed to associate with immobilized peptide over 120 s. Subsequently, the SA-BLI probe was immersed into kinetics buffer for 120 s to allow for dissociation. The data were analyzed, step corrected, reference corrected, and fit to a global 1:1 binding model. Kd, ka, and kd were calculated using the BLItz Pro software.

HIS6-PHD2 (181–426) = experiment: In vitro hydroxylation assay (HIS6-PHD2 treatment, then IVTT pVHL pull-down); assay type: biochemical; conditions: unmodified biotinylated peptides, 15 μg/mL HIS6-PHD2 (181–426), 1 h room temperature, then IVTT HA-VHL30 under stringent buffer
Experimental: Considering that prolyl hydroxylation is indispensable for HIF-2α binding to pVHL, we next examined the notion that the A530V mutation negatively influences hydroxylation of HIF-2α via PHD2, which would attenuate HIF-2α A530V binding affinity for pVHL. We conducted an in vitro hydroxylation assay utilizing unmodified peptides (amino acids 523–542) incubated with purified HIS6-PHD2 (catalytic core, amino acids 181–426).
Fig. 5 A subset of class 1 mutations specifically disrupts PHD2-mediated hydroxylation. a, b Biotinylated HIF-2α peptides (residues 523–542) were immobilized on streptavidin- agarose beads and incubated with HIS6-PHD2 for 1 h at room temperature prior to incubation with in vitro transcribed and translated (IVTT) pVHL. Streptavidin beads were pulled down (PD) and levels of HA-tagged pVHL were visualized via immmunoblotting (IB). c HEK293a cells were co-transfected with FLAG-VHL and HA-HIF-2α constructs. FLAG was immunoprecipitated (IP) and levels of HA-tagged HIF-2α were visualized via immunoblotting (IB). * denotes uncharacterized band
The in vitro pVHL-HIF-2α hydroxylation assay was performed according to a previously published protocol. 5 μg of biotinylated HIF-2α peptide was immobilized on streptavidin-agarose beads. Subsequently, peptides were incubated with 15 μg/mL HIS6-PHD2 (181–426) in 500 μL of 40 mM HEPES pH 7.4, 80 mM KCl, 5 mM a-ketoglutarate, 2 mM ascorbic acid, 100 μM FeCl2 tetrahydrate solution at room temperature for 1 h. FeCl2 was stored under anoxic conditions to prevent oxidation. Following hydroxylation, beads were washed 5x with EBC buffer and peptides were incubated with IVTT HA-VHL30 under the stringent buffer conditions described above.

[2] = BLItz biolayer interferometry, peptide (523–541) immobilized, global 1:1 model, mean of three experiments ± SEM

T1 sequence (P40337 54-213): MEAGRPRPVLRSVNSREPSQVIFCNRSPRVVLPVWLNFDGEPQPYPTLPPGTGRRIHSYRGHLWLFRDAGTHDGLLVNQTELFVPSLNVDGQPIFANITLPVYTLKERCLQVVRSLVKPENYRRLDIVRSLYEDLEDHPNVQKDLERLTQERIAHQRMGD
T1 sequence (Q15370 whole entry partner): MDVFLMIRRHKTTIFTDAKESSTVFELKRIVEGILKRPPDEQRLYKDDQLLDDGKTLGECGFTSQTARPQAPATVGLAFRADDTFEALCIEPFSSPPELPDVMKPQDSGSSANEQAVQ
T1 sequence (Q15369 17-112 partner limits assumed): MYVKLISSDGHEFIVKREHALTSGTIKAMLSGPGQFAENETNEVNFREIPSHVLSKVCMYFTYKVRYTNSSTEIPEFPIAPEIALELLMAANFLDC

ka (association rate) [1, 2] | binding to VBC compared to WT (in words) ([1]; BLI) | ka (association rate) ([1]; BLI, 1:1 model) | binding to pVHL following HIS6-PHD2 treatment (immunoblot, in words) (HIS6-PHD2 (181–426)) | Molecule
3.6 ± 0.05 x10^4 Ms^−1 | little defect |  |  | CC[C@H](C)[C@H](NC(=O)[C@H](Cc1ccc(O)cc1)NC(=O)[C@@H]1C[C@@H](O)CN1C(=O)[C@H](C)NC(=O)[C@H](CC(C)C)NC(=O)[C@@H](NC(=O)[C@H](CCC(=O)O)NC(=O)[C@H](CC(C)C)NC(=O)[C@H](CC(=O)O)NC(=O)[C@H](CC(C)C)NC(=O)[C@H](CCC(=O)O)NC(=O)CCCC[C@@H]1SC[C@@H]2NC(=O)N[C@@H]21)[C@@H](C)O)C(=O)N1CCC[C@H]1C(=O)N[C@@H](CCSC)C(=O)N[C@@H](CC(=O)O)C(=O)NCC(=O)N[C@@H](CCC(=O)O)C(=O)N[C@@H](CCC(=O)O)C(=O)N[C@@H](Cc1ccccc1)C(=O)N[C@@H](CCC(N)=O)C(N)=O [HIF-2αOH (D539E)]
3.1 ± 0.3 x10^4 Ms^−1 |  | 31000 M/s |  | CC[C@H](C)[C@H](NC(=O)[C@H](Cc1ccc(O)cc1)NC(=O)[C@@H]1C[C@@H](O)CN1C(=O)[C@H](C)NC(=O)[C@H](CC(C)C)NC(=O)[C@@H](NC(=O)[C@H](CCC(=O)O)NC(=O)[C@H](CC(C)C)NC(=O)[C@H](CC(=O)O)NC(=O)[C@H](CC(C)C)NC(=O)[C@H](CCC(=O)O)NC(=O)CCCC[C@@H]1SC[C@@H]2NC(=O)N[C@@H]21)[C@@H](C)O)C(=O)N1CCC[C@H]1C(=O)N[C@@H](CCSC)C(=O)N[C@@H](CC(=O)O)C(=O)NCC(=O)N[C@@H](CCC(=O)O)C(=O)N[C@@H](CC(=O)O)C(=O)N[C@@H](CC(C)C)C(=O)N[C@@H](CCC(N)=O)C(N)=O [HIF-2αOH (F540L)]
3.0 ± 0.2 x10^4 Ms^−1 |  | 30000 M/s |  | CC[C@H](C)[C@H](NC(=O)[C@H](Cc1ccc(O)cc1)NC(=O)[C@@H]1C[C@@H](O)CN1C(=O)[C@H](C)NC(=O)[C@H](CC(C)C)NC(=O)[C@@H](NC(=O)[C@H](CCC(=O)O)NC(=O)[C@H](CC(C)C)NC(=O)[C@H](CC(=O)O)NC(=O)[C@H](CC(C)C)NC(=O)[C@H](CCC(=O)O)NC(=O)CCCC[C@@H]1SC[C@@H]2NC(=O)N[C@@H]21)[C@@H](C)O)C(=O)N1CCC[C@H]1C(=O)N[C@@H](CCSC)C(=O)N[C@@H](CC(=O)O)C(=O)N[C@@H](CCCNC(=N)N)C(=O)N[C@@H](CCC(=O)O)C(=O)N[C@@H](CC(=O)O)C(=O)N[C@@H](Cc1ccccc1)C(=O)N[C@@H](CCC(N)=O)C(N)=O [HIF-2αOH (G537R)]
3.1 ± 0.2 x10^4 Ms^−1 | little defect |  |  | CC[C@H](C)[C@H](NC(=O)[C@@H]1CCCN1C(=O)[C@@H](NC(=O)[C@H](Cc1ccc(O)cc1)NC(=O)[C@@H]1C[C@@H](O)CN1C(=O)[C@H](C)NC(=O)[C@H](CC(C)C)NC(=O)[C@@H](NC(=O)[C@H](CCC(=O)O)NC(=O)[C@H](CC(C)C)NC(=O)[C@H](CC(=O)O)NC(=O)[C@H](CC(C)C)NC(=O)[C@H](CCC(=O)O)NC(=O)CCCC[C@@H]1SC[C@@H]2NC(=O)N[C@@H]21)[C@@H](C)O)[C@@H](C)CC)C(=O)N[C@@H](CC(=O)O)C(=O)NCC(=O)N[C@@H](CCC(=O)O)C(=O)N[C@@H](CC(=O)O)C(=O)N[C@@H](Cc1ccccc1)C(=O)N[C@@H](CCC(N)=O)C(N)=O [HIF-2αOH (M535I)]
4.9 ± 0.2 x10^4 Ms^−1 |  |  |  | CC[C@H](C)[C@H](NC(=O)[C@H](CS)NC(=O)[C@@H]1C[C@@H](O)CN1C(=O)[C@H](C)NC(=O)[C@H](CC(C)C)NC(=O)[C@@H](NC(=O)[C@H](CCC(=O)O)NC(=O)[C@H](CC(C)C)NC(=O)[C@H](CC(=O)O)NC(=O)[C@H](CC(C)C)NC(=O)[C@H](CCC(=O)O)NC(=O)CCCC[C@@H]1SC[C@@H]2NC(=O)N[C@@H]21)[C@@H](C)O)C(=O)N1CCC[C@H]1C(=O)N[C@@H](CCSC)C(=O)N[C@@H](CC(=O)O)C(=O)NCC(=O)N[C@@H](CCC(=O)O)C(=O)N[C@@H](CC(=O)O)C(=O)N[C@@H](Cc1ccccc1)C(=O)N[C@@H](CCC(N)=O)C(N)=O [HIF-2αOH (Y532C)]
4.1 ± 0.4 x10^4 Ms^−1 |  | 41000 M/s |  | CC[C@H](C)[C@H](NC(=O)[C@H](Cc1ccc(O)cc1)NC(=O)[C@@H]1C[C@@H](O)CN1C(=O)[C@H](C)NC(=O)[C@H](CC(C)C)NC(=O)[C@@H](NC(=O)[C@H](CCC(=O)O)NC(=O)[C@H](CC(C)C)NC(=O)[C@H](CC(=O)O)NC(=O)[C@H](CC(C)C)NC(=O)[C@@H](N)CCC(=O)O)[C@@H](C)O)C(=O)N1CCC[C@H]1C(=O)N[C@@H](CCSC)C(=O)N[C@@H](CC(=O)O)C(=O)NCC(=O)N[C@@H](CCC(=O)O)C(=O)N[C@@H](CC(=O)O)C(=O)N[C@@H](Cc1ccccc1)C(=O)N[C@@H](CCC(N)=O)C(N)=O [HIF-2αOH (wild-type)]

More lines, now with the values behind:

Molecule | ka (association rate) [1, 2] | binding to VBC compared to WT (in words) ([1]; BLI) | ka (association rate) ([1]; BLI, 1:1 model) | binding to pVHL following HIS6-PHD2 treatment (immunoblot, in words) (HIS6-PHD2 (181–426))
CC[C@H](C)[C@H](NC(=O)[C@H](Cc1ccc(O)cc1)NC(=O)[C@@H]1C[C@@H](O)CN1C(=O)[C@@H](NC(=O)[C@H](CC(C)C)NC(=O)[C@@H](NC(=O)[C@H](CCC(=O)O)NC(=O)[C@H](CC(C)C)NC(=O)[C@H](CC(=O)O)NC(=O)[C@H](CC(C)C)NC(=O)[C@H](CCC(=O)O)NC(=O)CCCC[C@@H]1SC[C@@H]2NC(=O)N[C@@H]21)[C@@H](C)O)[C@@H](C)O)C(=O)N1CCC[C@H]1C(=O)N[C@@H](CCSC)C(=O)N[C@@H](CC(=O)O)C(=O)NCC(=O)N[C@@H](CCC(=O)O)C(=O)N[C@@H](CC(=O)O)C(=O)N[C@@H](Cc1ccccc1)C(=O)N[C@@H](CCC(N)=O)C(N)=O [HIF-2αOH (A530T)] | 3.4 ± 0.3 x10^4 Ms^−1 |  |  | 
CC[C@H](C)[C@H](NC(=O)[C@H](Cc1ccc(O)cc1)NC(=O)[C@@H]1C[C@@H](O)CN1C(=O)[C@@H](NC(=O)[C@H](CC(C)C)NC(=O)[C@@H](NC(=O)[C@H](CCC(=O)O)NC(=O)[C@H](CC(C)C)NC(=O)[C@H](CC(=O)O)NC(=O)[C@H](CC(C)C)NC(=O)[C@H](CCC(=O)O)NC(=O)CCCC[C@@H]1SC[C@@H]2NC(=O)N[C@@H]21)[C@@H](C)O)C(C)C)C(=O)N1CCC[C@H]1C(=O)N[C@@H](CCSC)C(=O)N[C@@H](CC(=O)O)C(=O)NCC(=O)N[C@@H](CCC(=O)O)C(=O)N[C@@H](CC(=O)O)C(=O)N[C@@H](Cc1ccccc1)C(=O)N[C@@H](CCC(N)=O)C(N)=O [HIF-2αOH (A530V)] | 2.7 ± 0.2 x10^4 Ms^−1 |  |  | 
Bio-HIF-2α(A530T): unmodified HIF-2α peptide (523–542) with A530T mutation (Biotin-ELDLETLTPYIPMDGEDFQL-NH2; SMILES CC[C@H](C)[C@H](NC(=O)[C@H](Cc1ccc(O)cc1)NC(=O)[C@@H]1CCCN1C(=O)[C@@H](NC(=O)[C@H](CC(C)C)NC(=O)[C@@H](NC(=O)[C@H](CCC(=O)O)NC(=O)[C@H](CC(C)C)NC(=O)[C@H](CC(=O)O)NC(=O)[C@H](CC(C)C)NC(=O)[C@H](CCC(=O)O)NC(=O)CCCC[C@@H]1SC[C@@H]2NC(=O)N[C@@H]21)[C@@H](C)O)[C@@H](C)O)C(=O)N1CCC[C@H]1C(=O)N[C@@H](CCSC)C(=O)N[C@@H](CC(=O)O)C(=O)NCC(=O)N[C@@H](CCC(=O)O)C(=O)N[C@@H](CC(=O)O)C(=O)N[C@@H](Cc1ccccc1)C(=O)N[C@@H](CCC(N)=O)C(=O)N[C@@H](CC(C)C)C(N)=O) |  |  |  | only minimally able to bind pVHL
Bio-HIF-2α(A530V): unmodified HIF-2α peptide (523–542) with A530V mutation (Biotin-ELDLETLVPYIPMDGEDFQL; UniProt Q99814 523-542, looked up, fragment A530V) |  |  |  | only minimally able to bind pVHL
HIF-2α (wild-type): biotinylated non-hydroxylated wild-type HIF-2α peptide, residues 523–541 |  |  |  | failed to bind pVHL
